pKd: −log10 of the molar value. ≈ marks a conversion by molar mass, not a printed value.
Assays:
Yeast Hsp90 = Yeast Hsp90 (Saccharomyces cerevisiae, UniProt P02829); assay: Hsp90 binding, isothermal titration calorimetry; conditions: yeast Hsp90; ITC at 30° C.; 2% DMSO; read-out: Kd values for Hsp90 binding
Description: Yeast Hsp90 was dialysed against 20 mM Tris pH 7.5 containing 1 mM EDTA and 5 mM NaCl and then diluted to 0.008 mM in the same buffer, but containing 2% DMSO. The test compounds were dissolved in 100% DMSO at a concentration of 50 mM and subsequently diluted to 0.1 mM in the same buffer as for Hsp90 with 2% DMSO. Heats of interaction were measured at 30° C. on a MSC system (Microcal), with a cell volume of 1.458 mL. 10 aliquots of 0.027 mL of 0.100 mM of each test compound were injected into 0.008 mM yeast Hsp90. Heats of dilution were determined in a separate experiment by injecting the test compound into buffer containing 2% DMSO, and the corrected data fitted using a nonlinear least square curve-fitting algorithm (Microcal Origin) with three floating variables: stoichiometry, binding constant and change in enthalpy of interaction.

OVCAR3 = assay: monolayer proliferation assay (modified propidium iodide assay), OVCAR3; type: cell-based, human; conditions: 4 days exposure, median of duplicate experiments
Description: (§1) In vitro evaluation of compounds for anticancer activity in a panel of 38 human tumour cell lines in a monolayer proliferation assay was carried out at the Oncotest Testing Facility, Institute for Experimental Oncology, Oncotest GmbH, Freiburg.
(§2) The Oncotest cell lines are established from human tumor xenografts as described by Roth et al., (1999). The origin of the donor xenografts was described by Fiebig et al., (1999). Other cell lines are either obtained from the NCl (H460, SF-268, OVCAR-3, DU145, MDA-MB-231, MDA-MB-468) or purchased from DSMZ, Braunschweig, Germany (LNCAP).
(§3) All cell lines, unless otherwise specified, were grown at 37° C. in a humidified atmosphere (95% air, 5% CO2) in a ‘ready-mix’ medium containing RPMI 1640 medium, 10% fetal calf serum, and 0.1 mg/mL gentamicin (PAA, Cölbe, Germany).
(§4) A modified propidium iodide assay was used to assess the effects of the test compound(s) on the growth of human tumour cell lines (Dengler et al., (1995)).
(§5) Briefly, cells were harvested from exponential phase cultures by trypsinization, counted and plated in 96 well flat-bottomed microtitre plates at a cell density dependent on the cell line (5-10.000 viable cells/well). After 24 h recovery to allow the cells to resume exponential growth, 0.010 mL of culture medium (6 control wells per plate) or culture medium containing a 21-deoxymacbecin analogue was added to the wells. Each concentration was plated in triplicate. […] Following 4 days of continuous exposure, cell culture medium with or without test compound was replaced by 0.2 mL of an aqueous propidium iodide (PI) solution (7 mg/L). To measure the proportion of living cells, cells were permeabilized by freezing the plates. After thawing the plates, fluorescence was measured using the Cytofluor 4000 microplate reader (excitation 530 nm, emission 620 nm), giving a direct relationship to the total number of viable cells.
(§6) Growth inhibition was expressed as treated/control×100 (% T/C). For active compounds, IC70 values were estimated by plotting compound concentration versus cell viability.
(§7) In vitro evaluation of the test compounds for anticancer activity in a panel of human tumour cell lines in a monolayer proliferation assay was carried out as described in the general methods using a modified propidium iodide assay.

DU145 [1] = assay: monolayer proliferation assay (modified propidium iodide assay), DU145; type: cell-based, human; conditions: 4 days exposure, median of duplicate experiments
Description: as §1, §2, §3, §4, §5, §6, §7

LNCAP = assay: monolayer proliferation assay (modified propidium iodide assay), LNCAP; type: cell-based, human; conditions: 4 days exposure, median of duplicate experiments
Description: as §1, §2, §3, §4, §5, §6, §7

MCF7 = assay: monolayer proliferation assay (modified propidium iodide assay), MCF7; type: cell-based, human; conditions: 4 days exposure, median of duplicate experiments
Description: as §1, §2, §3, §4, §5, §6, §7

394NL = assay: monolayer proliferation assay (modified propidium iodide assay), 394NL; type: cell-based, human; conditions: 4 days exposure, median of duplicate experiments
Description: as §1, §2, §3, §4, §5, §6, §7

Solubility assay = type: physicochemical; conditions: aqueous buffer, kinetic from dmso stock; 2% DMSO in PBS pH 7.3; shaken up to six hours; maximum measurable 0.5 mM
Description: Solutions (25 mM) of the test compounds were prepared by dissolving 3-5 mg aliquots in the appropriate amount of DMSO.
Aliquots (0.01 mL) were added to 0.490 mL of pH 7.3 PBS in glass vials. For each time point, 3 PBS vials were prepared in amber glass vials. For the six hour time point triplicate aliquots in DMSO were also prepared.
The resulting 0.5 mM solutions were shaken for up to six hours, with vials removed for analysis at 1, 3 and 6 hours. Samples were analysed by HPLC (0.025 mL injections).
Solubility in 2% DMSO in PBS at each time point was determined by comparing total peak areas for each chromatogram with mean total peak area for chromatograms produced from the corresponding 6 hour DMSO solutions. (Mean total peak area in DMSO solutions was assumed to be equivalent to a 0.5 mM solution).

H460 = assay: monolayer proliferation assay (modified propidium iodide assay), H460; type: cell-based, human; conditions: 4 days exposure, median of duplicate experiments
Description: as §1, §2, §3, §4, §5, §6, §7

SF268 = assay: monolayer proliferation assay (modified propidium iodide assay), SF268; type: cell-based, human; conditions: 4 days exposure, median of duplicate experiments
Description: as §1, §2, §3, §4, §5, §6, §7

1138L = assay: monolayer proliferation assay (modified propidium iodide assay), 1138L; type: cell-based, human; conditions: 4 days exposure, median of duplicate experiments
Description: as §1, §2, §3, §4, §5, §6, §7

251L = assay: monolayer proliferation assay (modified propidium iodide assay), 251L; type: cell-based, human; conditions: 4 days exposure, median of duplicate experiments
Description: as §1, §2, §3, §4, §5, §6, §7

DU145 [2] = assay: in vitro anticancer activity in combination with compound 14, modified propidium iodide assay; type: cell-based, human
Description: Standard agents were applied at 10 concentrations in sextuplicates in half-log increments. […] Growth inhibition is expressed as treated/control×100 (% T/C), and IC70 values for each combination were determined by plotting compound concentration versus cell viability.
In vitro evaluation of 14 for anticancer activity when combined with standard cytotoxic agents against the tumour cell line DU145 in a monolayer proliferation assay was carried out as described in the general methods using a modified propidium iodide assay.

Hsp90 = Hsp90 (Homo sapiens, UniProt P07900); conditions: cited from earlier work

Chain of Yeast Hsp90 (P02829 whole entry): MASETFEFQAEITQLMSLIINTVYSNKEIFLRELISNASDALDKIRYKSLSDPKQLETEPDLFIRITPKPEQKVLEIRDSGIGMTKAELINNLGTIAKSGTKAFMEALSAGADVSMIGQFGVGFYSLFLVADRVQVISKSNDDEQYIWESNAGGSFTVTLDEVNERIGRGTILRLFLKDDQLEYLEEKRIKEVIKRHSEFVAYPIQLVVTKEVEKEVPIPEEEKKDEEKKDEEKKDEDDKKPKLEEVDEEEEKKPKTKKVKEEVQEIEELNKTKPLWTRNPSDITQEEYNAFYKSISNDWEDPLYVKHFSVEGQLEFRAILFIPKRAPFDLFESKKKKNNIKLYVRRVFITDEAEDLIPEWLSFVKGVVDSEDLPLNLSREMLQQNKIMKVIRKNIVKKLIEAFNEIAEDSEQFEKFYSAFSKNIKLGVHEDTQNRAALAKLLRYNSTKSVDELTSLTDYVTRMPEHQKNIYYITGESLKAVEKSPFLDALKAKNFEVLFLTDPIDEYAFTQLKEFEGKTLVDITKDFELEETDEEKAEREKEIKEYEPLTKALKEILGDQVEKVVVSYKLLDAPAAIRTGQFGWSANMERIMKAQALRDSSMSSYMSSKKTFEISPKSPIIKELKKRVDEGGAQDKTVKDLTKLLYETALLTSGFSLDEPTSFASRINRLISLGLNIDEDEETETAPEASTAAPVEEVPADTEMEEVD

Row | SMILES | pKd (Yeast Hsp90) | Test/Control (%) at drug concentration (OVCAR3; 1 μg/mL) [%] | Test/Control (%) at drug concentration (OVCAR3; 10 μg/mL) [%] | Test/Control (%) at drug concentration (DU145 [1]; 1 μg/mL) [%] | Test/Control (%) at drug concentration (DU145 [1]; 10 μg/mL) [%] | Test/Control (%) at drug concentration (LNCAP; 1 μg/mL) [%] | Test/Control (%) at drug concentration (LNCAP; 10 μg/mL) [%] | Test/Control (%) at drug concentration (MCF7; 1 μg/mL) [%] | Test/Control (%) at drug concentration (MCF7; 10 μg/mL) [%] | Test/Control (%) at drug concentration (394NL; 1 μg/mL) [%] | Test/Control (%) at drug concentration (394NL; 10 μg/mL) [%] | solubility (Solubility assay) [µM] | Test/Control (%) at drug concentration (H460; 1 μg/mL) [%] | Test/Control (%) at drug concentration (H460; 10 μg/mL) [%] | Test/Control (%) at drug concentration (SF268; 1 μg/mL) [%] | Test/Control (%) at drug concentration (SF268; 10 μg/mL) [%] | Test/Control (%) at drug concentration (1138L; 1 μg/mL) [%] | Test/Control (%) at drug concentration (1138L; 10 μg/mL) [%] | Test/Control (%) at drug concentration (251L; 1 μg/mL) [%] | Test/Control (%) at drug concentration (251L; 10 μg/mL) [%] | further results
1 | CO[C@H]1C[C@H](C)[C@@H](O)c2cc(O)cc(c2)NC(=O)/C(C)=C/CC[C@H](C)[C@@H](OC(N)=O)/C(C)=C/[C@H](C)[C@H]1O [Compound 15, 7-O-carbamoyl-15-hydroxypre-macbecin] | 8.22 | 100 | 41 | 99 | 18 | 58 | 16 | 99 | 19 | 75 | 18 | ≥ 500 | 87 | 23 | 95 | 27 | 101 | 25 | 86 | 29 | –
2 | O=C1c2c(O)ccc(O)c2C(=O)c2c(NCCNCCO)ccc(NCCNCCO)c21 [mitoxantrone] | – | – | – | – | – | – | – | – | – | – | – | – | – | – | – | – | – | – | – | – | IC70 of standard agent (DU145 [2]; combined with 14 at 80 nM): 1.00 µg/mL; IC70 of standard agent (DU145 [2]; combined with 14 at 120 nM): 1.25 µg/mL; IC70 of standard agent (DU145 [2]; combined with 14 at 160 nM): 0.11 µg/mL; IC70 of standard agent (DU145 [2]; concentration of 14: 0 nM (standard agent alone)): 2.08 µg/mL
3 | CO[C@H]1C[C@H](C)Cc2cc(O)cc(c2)NC(=O)/C=C/CC[C@H](OC)[C@@H](OC(N)=O)/C(C)=C/[C@H](C)[C@H]1O [KOSN1559] | – | – | – | – | – | – | – | – | – | – | – | – | – | – | – | – | – | – | – | – | binding affinity to Hsp90, greater than 17-AAG (Hsp90; relative to 17-AAG): 8 fold; binding affinity to Hsp90, greater than geldanamycin (Hsp90; relative to geldanamycin): 4 fold
4 | CO[C@H]1C[C@H](C)Cc2cc(O)cc(c2)NC(=O)/C(C)=C/CC[C@H](C)[C@@H](OC(N)=O)/C(C)=C/[C@H](C)[C@H]1O [Compound 14, 7-O-carbamoylpre-macbecin] | 8.49 | 27 | 28 | 8 | 6 | 13 | 12 | 11 | 9 | 14 | 13 | ≥ 500 | 3 | 4 | 18 | 16 | 13 | 14 | 18 | 16 | –
5 | CO[C@H]1[C@@H](OC)C[C@H](C)[C@@H](OC)c2cc(O)cc(c2O)NC(=O)/C(C)=C/C=C\[C@H](C)[C@@H](OC(N)=O)/C(C)=C/[C@@H]1C [18,21-dihydromacbecin] | – | – | – | – | – | – | – | – | – | – | – | 136 (≈ 76.3 µg/mL) | – | – | – | – | – | – | – | – | –
